In patent US8129398B2 (priority 2008, dated 2012):

molecular target: T1, HIV-integrase (Human immunodeficiency virus type 1 group M subtype B, UniProt P12497); assay: HIV-Integrase Inhibition Activity (SPA bead integration assay with P33 labeled target DNA); type: biochemical; conditions: recombinant integrase, class symbols; read-out: in vitro activity
T1 construct: Recombinant integrase (0.26 ng) was incubated with the beads
Outline: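 Biotinylated substrate DNA on streptavidin SPA beads loaded with recombinant integrase (90 min, 37° C), washed, then inhibitor plus 0.1 fmol P33-labeled target DNA added. Reaction stopped with 10 mM EDTA; integration measured as CPM by scintillation, giving IC50 ranks.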

SMILES	IC50 [µM]
CN(C)C(=O)C(=O)NC12CCC(Cn3c1nc(C(=O)NCc1ccc(F)cc1)c(O)c3=O)C2 (single isomer, unassigned) [Example 411, Ethanediamide, N′-[2-[[[(4-fluorophenyl)methyl]amino]carbonyl]-6,7,8,9-tetrahydro-3-hydroxy-4-oxo-7,11-methanopyrimido[1,2-a]azepin-10(4H)-yl]-N,N-dimethyl-]	< 0.01
O=C(NCc1ccc(F)cc1)c1nc2n(c(=O)c1O)CC1CCC2(NC(=O)C2CCOCC2)CC1 [Example 32, N-(4-Fluorobenzyl)-3-hydroxy-4-oxo-10-((tetrahydro-2H-pyran-4-ylcarbonyl)amino)-4,6,7,8,9,10-hexahydro-7,10-ethanopyrimido[1,2-a]azepine-2-carboxamide]	< 0.01
CN(C)C(=O)C(=O)NC12CCC(CC1)Cn1c2nc(C(=O)NCCc2ccccc2)c(O)c1=O [Example 343]	0.01 to 0.1
CS(=O)(=O)NC12CCC(CC1)n1c2nc(C(=O)NCc2ccc(F)cc2)c(O)c1=O [Example 13, 6,9-ethano-4H-pyrido[1,2-a]pyrimidine-2-carboxamide, N-[(4-fluorophenyl)methyl]-6,7,8,9-tetrahydro-3-hydroxy-9-[(methylsulfonyl)amino]-4-oxo-]	< 0.01
Cc1cc(F)ccc1CNC(=O)c1nc2n(c(=O)c1O)CC1CCC2(NC(=O)C(=O)N(C)C)CC1 [Example 120, N′-(2-((4-Fluoro-2-methylbenzyl)carbamoyl)-3-hydroxy-4-oxo-6,7,8,9-tetrahydro-7,10-ethanopyrimido[1,2-a]azepin-10(4H)-yl)-N,N-dimethylethanediamide]	< 0.01
Cc1ncoc1C(=O)NC12CCC(CC1)Cn1c2nc(C(=O)NCc2ccc(F)cc2)c(O)c1=O [Example 34, N-(4-Fluorobenzyl)-3-hydroxy-10-(((4-methyl-1,3-oxazol-5-yl)carbonyl)amino)-4-oxo-4,6,7,8,9,10-hexahydro-7,10-ethanopyrimido[1,2-a]azepine-2-carboxamide]	< 0.01
COc1cnc(Cl)c2[nH]cc(C(=O)C(=O)NC34CCC(CC3)Cn3c4nc(C(=O)NCc4ccc(F)cc4)c(O)c3=O)c12 [Example 47, 10-(((7-Chloro-4-methoxy-1H-pyrrolo[2,3-c]pyridin-3-yl)(oxo)acetyl)amino)-N-(4-fluorobenzyl)-3-hydroxy-4-oxo-4,6,7,8,9,10-hexahydro-7,10-ethanopyrimido[1,2-a]azepine-2-carboxamide]	< 0.01
O=C(NCc1ccc(F)cc1)c1nc2n(c(=O)c1O)CC1CCC2(NC(=O)C2CCCN2S(=O)(=O)c2ccco2)CC1 (stereo not drawn) [Example 410]	< 0.01
O=C(NC12CCC(Cn3c1nc(C(=O)NCc1ccc(F)cc1)c(O)c3=O)C2)OCc1ccccc1 (stereo not drawn) [Example 189, Carbamic acid, [2-[[[(4-fluorophenyl)methyl]amino]carbonyl]-6,7,8,9-tetrahydro-3-hydroxy-4-oxo-7,10-methanopyrimido[1,2-a]azepin-10(4H)-yl]-, phenylmethyl ester]	< 0.01
O=C(NC12CCC(CC1)Cn1c2nc(C(=O)NCc2ccc(F)cc2)c(O)c1=O)C(=O)N1CCCC1 [Example 58, N-(4-Fluorobenzyl)-3-hydroxy-4-oxo-10-((oxo(1-pyrrolidinyl)acetyl)amino)-4,6,7,8,9,10-hexahydro-7,10-ethanopyrimido[1,2-a]azepine-2-carboxamide]	< 0.01
C=C[C@H]1C[C@@]1(NC(C)=O)C(=O)NC12CCC(CC1)Cn1c2nc(C(=O)NCc2ccc(F)c(C)c2)c(O)c1=O [Example 300, 7,10-Ethanopyrimido[1,2-a]azepine-2-carboxamide, 10-[[[(1S,2R)-1-(acetylamino)-2-ethenylcyclopropyl]carbonyl]amino]-N-[(4-fluoro-3-methylphenyl)methyl]-4,6,7,8,9,10-hexahydro-3-hydroxy-4-oxo-]	< 0.01
Cn1cnc(S(=O)(=O)N2CCN(C(=O)C(=O)NC34CCC(CC3)Cn3c4nc(C(=O)NCc4ccc(F)cc4)c(O)c3=O)CC2)c1 [Example 148, N-(4-Fluorobenzyl)-3-hydroxy-10-(((4-((1-methyl-1H-imidazol-4-yl)sulfonyl)-1-piperazinyl)(oxo)acetyl)amino)-4-oxo-4,6,7,8,9,10-hexahydro-7,10-ethanopyrimido[1,2-a]azepine-2-carboxamide]	< 0.01
Cc1cc(C(=O)NC23CCC(CC2)Cn2c3nc(C(=O)NCc3ccc(F)cc3-n3ncnc3C)c(O)c2=O)no1 [Example 37, N-(4-Fluoro-2-(5-methyl-1H-1,2,4-triazol-1-yl)benzyl)-3-hydroxy-10-(((5-methyl-3-isoxazolyl)carbonyl)amino)-4-oxo-4,6,7,8,9,10-hexahydro-7,10-ethanopyrimido[1,2-a]azepine-2-carboxamide]	0.01 to 0.1
CC(=O)N1CC[C@H](C(=O)NC23CCC(CC2)Cn2c3nc(C(=O)NCc3ccc(F)c(C)c3)c(O)c2=O)C1 [Example 282, 7,10-Ethanopyrimido[1,2-a]azepine-2-carboxamide, 10-[[[(3S)-1-acetyl-3-pyrrolidinyl]carbonyl]amino]-N-[(4-fluoro-3-methylphenyl)methyl]-4,6,7,8,9,10-hexahydro-3-hydroxy-4-oxo-]	< 0.01
Cc1cc(C(=O)N2CCN(C(=O)C(=O)NC34CCC(CC3)Cn3c4nc(C(=O)NCc4ccc(F)cc4)c(O)c3=O)CC2)no1 [Example 139, N-(4-Fluorobenzyl)-3-hydroxy-10-(((4-((5-methyl-3-isoxazolyl)carbonyl)-1-piperazinyl)(oxo)acetyl)amino)-4-oxo-4,6,7,8,9,10-hexahydro-7,10-ethanopyrimido[1,2-a]azepine-2-carboxamide]	< 0.01
CN(C)C(=O)C(=O)NC12CCC(CCn3c1nc(C(=O)NCc1ccc(F)c(F)c1)c(O)c3=O)C2 (stereo not drawn) [Example 214, Ethanediamide, N′-[2-[[[(3,4-difluorophenyl)methyl]amino]carbonyl]-7,8,9,10-tetrahydro-3-hydroxy-4-oxo-8,11-methano-4H-pyrimido[1,2-a]azocin-11(6H)-yl]-N,N-dimethyl]	< 0.01
CC(NC(=O)c1nc2n(c(=O)c1O)CC1CCC2(NC(=O)C(=O)N(C)C)CC1)c1ccccc1 (stereo not drawn) [Example 366]	< 0.01
Cc1cc(CNC(=O)c2nc3n(c(=O)c2O)CCC2CCC3(NC(=O)C(=O)N(C)C)C2)ccc1F (stereo not drawn) [Example 212, Ethanediamide, N′-[2-[[[(4-fluoro-3-methylphenyl)methyl]amino]carbonyl]-7,8,9,10-tetrahydro-3-hydroxy-4-oxo-8,11-methano-4H-pyrimido[1,2-a]azocin-11(6H)-yl]-N,N-dimethyl-]	< 0.01
O=C(NC12CCC(CC1)Cn1c2nc(C(=O)NCc2ccc(F)cc2)c(O)c1=O)c1ccccn1 [Example 26, N-(4-Fluorobenzyl)-3-hydroxy-4-oxo-10-((2-pyridinylcarbonyl)amino)-4,6,7,8,9,10-hexahydro-7,10-ethanopyrimido[1,2-a]azepine-2-carboxamide]	< 0.01
CN(C)C(=O)C(=O)NC12CCC(CC1)Cn1c2nc(C(=O)NCCCn2ccnc2)c(O)c1=O [Example 350]	> 0.1
CN(C)S(=O)(=O)NC12CCC(CC1)Cn1c2nc(C(=O)NCc2ccc(F)cc2)c(O)c1=O [Example 40, 10-((Dimethylsulfamoyl)amino)-N-(4-fluorobenzyl)-3-hydroxy-4-oxo-4,6,7,8,9,10-hexahydro-7,10-ethanopyrimido[1,2-a]azepine-2-carboxamide]	< 0.01
